Experimental findings from a melting point compilation (Tetko et al.; mined from patent text by program, amines drawn as free bases though some values may be those of a salt) are described below.

Broadly, the melting point is the temperature of the solid-liquid transition.

SMILES strings stand for the structures.

As to `CC(=O)OC1=CC2=CCC3C4CC(C)C(O)(CC(=O)OC(=O)C(C)(C)C)C4(C)CC4OC43C2(C)C=C1` (configuration not stated), the melting point was 108 to 120 °C.

As for `CCOC(=O)COc1ccc(CCl)cc1OC`, the melting point lay within 64 to 66 °C.

On to `COc1cc(-c2nc3ccccc3n2Cc2ccc(Cl)cc2)cc(OC)c1OC`, for which the melting point came to 169 °C.

The compound `COC(=O)C1Cc2c(OC)cccc2N1S(=O)(=O)c1ccc(-c2ccc(F)cc2Cl)cc1` (configuration not stated) gave a melting point of 80 °C.

`N#CCCc1c(SC(F)(F)F)c(C#N)c(Cl)n1-c1c(Cl)cc(C(F)(F)F)cc1Cl` displayed a melting point of 150 °C.

Take `C[C@@H]1C[C@@H]([C@H](CC2CCCCC2)NC(=O)[C@H](Cc2cscn2)NC(=O)OC(C)(C)C)OC1=O`: the melting point lay in the range of 118 to 120 °C.

In the case of `COc1ccccc1N1CCN(C(=O)c2ccccc2C(c2ccc(O)cc2)c2ccc(O)cc2)CC1`, the melting point was 229 to 231 °C.

The compound `O=C(NCC1CN(Cc2ccccc2)CCO1)c1cccc2c1OCO2` (configuration not stated) showed a melting point of 144 to 146 °C.

In turn, `O=C1CNC(=O)N1Cc1ccc2c(c1)N(C1CCN(CCc3ccc(F)cc3)CC1)CC2` gave a melting point of 191 to 193 °C.

In the case of `O=C(O)CCN1CCN2c3ccccc3Sc3ccccc3C2C1` (configuration not stated), the melting point fell in the range of 218 to 220 °C.

Regarding `CCc1cc2c(s1)-c1ccccc1C(CC)N2S(=O)(=O)c1ccc(O)cc1` (configuration not stated), the melting point lay within 119 to 122 °C.

In turn, `COC(=O)C1=C(C)N(C)C(C)C(C(=O)OC)=C1c1ccc(C(F)(F)F)cc1` (configuration not stated) showed a melting point of 94 to 95 °C.

In the case of `O=C(O)C1=Cc2cc3occ(-c4ccc(Br)cc4)c3cc2OC1C(F)(F)F` (configuration not stated), the melting point was above 250 °C.

`O=[N+]([O-])c1cc(C(F)(F)F)ccc1NCCN1CCN(C(c2ccccc2)c2ccccc2)CC1` had a melting point of 152 °C.

As for `CC(C)(C)c1ccc(CN2CCN(c3ccccc3)CC2)o1`, the melting point was 48 °C.

Turning to `CCCc1nc2c(N)nc3ccccc3c2s1`, the melting point was in the range of 140 to 142 °C.

`CC(=O)C=Cc1ccc(OCc2ccccc2)cc1` registered a melting point of 106 to 107 °C.

Take `CC(C)N(Cc1cccs1)S(=O)(=O)N[C@@H](Cc1ccc(NC(=O)c2cc(Cl)cc(Cl)c2)cc1)C(=O)O`: the melting point is 122 °C.

In the case of `CCCCc1nc(Cl)c(CC=CO)n1Cc1ccc(NC(=O)c2ccccc2C(=O)O)cc1`, the melting point is 150 to 151 °C.

Regarding `Cc1nc2c(s1)CN=C(c1ccccc1)c1cc(Cl)ccc1-2`, the melting point fell in the range of 128 to 130 °C.

For `O=C(O)C1c2ccccc2COc2ccccc21` (configuration not stated), the melting point lay in the range of 200 to 201 °C.

`COC(=O)c1sccc1NC(=O)OC(C)C` yielded a melting point of 105 to 107 °C.

`Cc1nc(Nc2nc3ccccc3[nH]2)nc(O)c1CC(=O)O` yielded a melting point above 300 °C.

As for `O=C1c2ccccc2C(=O)N1Cc1noc(-c2ncn3c2[C@@H]2CCN2C(=O)c2sccc2-3)n1`, the melting point lay within 155 to 157 °C.

On to `CCC(C(=O)N(C)C)n1cc(C)c(-c2ccccc2OC)n1` (configuration not stated), for which the melting point lay within 79 to 81 °C.

`COC(=O)c1cc2ccc(S)cc2nc1OC` gave a melting point of 103 to 105 °C.

On to `CCOC(=O)c1coc(-c2ccc(CO)cc2)n1`, for which the melting point was in the range of 99 to 101 °C.

The compound `COc1ccc(N2CCN(C)CC2)c2c1CC[C@H](NC(=O)c1ccc(N3CCOCC3)cc1)C2` gave a melting point of 229 to 232 °C.

In turn, `O=CC1=Cc2cc(OCCCc3ccccc3)ccc2OC1` yielded a melting point of 71 to 73 °C.

`O=C(CC1CC1)Nc1c(C(=O)c2ccccc2)[nH]c2cc(Cl)ccc12` showed a melting point of 72 to 75 °C.

With `C=CCc1c(O)cccc1C1=NNC(=O)CC1`, the melting point fell in the range of 197 to 200 °C.

Regarding `CCc1ccc(Cc2c(OC)cccc2OC)cc1`, the melting point was 62.5 to 66.5 °C.

Take `CCCCCCNC(=O)[C@H](C)C[C@H](O)[C@H](CC1CCCCC1)NC(=O)[C@H](Cc1cscn1)NC(=O)OC(C)(C)C`: the melting point was in the range of 156 to 158 °C.

In turn, `C[C@H]([C@](O)(Cn1cncn1)c1ccc(F)cc1F)S(=O)(=O)N1CCN(Cc2nncn2C)CC1` showed a melting point of 210 to 211 °C.

Compound `CCCc1c(OCCCCCC(=O)NCCCCc2ccccn2)ccc(C(C)=O)c1O` displayed a melting point of 63 to 66 °C.

Turning to `COc1ccc(Cl)c2oc(-c3ccc(S(N)(=O)=O)cc3)c(-c3ccc(F)cc3)c(=O)c12`, the melting point fell in the range of 279 to 281 °C.

`CCC(=O)Nc1nc2c(s1)-c1nc(-c3ccccc3)ncc1CC2` registered a melting point of 274 to 275 °C.

Compound `CCCCCCN=C=O` came in with a melting point of 68 to 72 °C.

`CCOC(=O)c1ccc(NC(=O)c2ccc3c(c2)SCCC3(C)C)cc1` displayed a melting point of 148 to 150 °C.

For `Cc1c[nH]c(=O)nc1-n1cncn1`, the melting point lay within 258 to 264 °C.

Compound `CCC(C)c1ccc(OC(C)=O)c(C2(OC(C)=O)C(=O)c3ccccc3C2=O)c1` (configuration not stated) yielded a melting point of 118 to 120 °C.

With `CC(=O)SCC(=Cc1cc(F)cc(F)c1)C(=O)NCCC(=O)OCc1ccccc1`, the melting point was 82 °C.

Compound `Cc1c(-c2cccnc2)n(CCCCCC(=O)O)c2ccc(Cl)cc12` came in with a melting point of 137 to 141 °C.

Take `CC(C)C1SCC(=O)CC1=O` (configuration not stated): the melting point is 71 °C.

`CCC1(CC)OC(=O)Nc2ccc(Br)cc21` registered a melting point of 150 to 152 °C.

As for `CC(=O)N1CCc2ccc(C(=O)CCCC3CCN(Cc4ccccc4Cl)CC3)cc2CC1`, the melting point lay within 99 to 100 °C.

Consider `COc1cc(N)c2ncccc2c1OCC(F)(F)F`, for which the melting point was 91 to 94 °C.

`Cn1c(=O)[nH]c2cc(CN3CCN(C(c4ccccc4)c4ccccc4)CC3)ccc21` returned a melting point of 246 °C.

With `CCCCCCCCCCCCCCCCN(CCCC)CCCCCCO`, the melting point fell in the range of 58 to 59 °C.

`COC(=O)c1cnoc1-c1ccc(F)cc1` gave a melting point of 92 to 93 °C.

In the case of `CCCCc1nc[nH]c(=O)c1Cc1ccc(-c2ccccc2C(=O)O)cc1`, the melting point fell in the range of 197 to 200 °C.

In turn, `O=C(CSc1ccccc1)C1CCCCN1` (configuration not stated) yielded a melting point of 68.5 to 69.5 °C.

In turn, `Oc1ccc(-c2c3ccccc3cc3sc4cc(O)ccc4c23)cc1` came in with a melting point of 197 to 199 °C.

In the case of `COc1nc2cc(Cl)c(Cl)c(CSCc3ccccc3)c2nc1OC`, the melting point is 121 to 122 °C.

`O=S(=O)(NCCN1CC(c2ccccc2)C(c2ccc(Cl)cc2)=N1)c1cccc(C(F)(F)F)c1` (configuration not stated) returned a melting point of 94 to 96 °C.

`CCN1c2ncc(CSc3ccccc3)cc2C(=O)N(C)c2ccc(Cl)nc21` displayed a melting point of 92 to 93 °C.

The compound `CC(C)(C)Nc1cc(NC(C)(C)C)nc(N2CCNCC2)n1` registered a melting point of 135 to 138 °C.

With `O=C1C[C@@H]2CCCC[C@@H]2N1O` (relative stereo), the melting point was in the range of 85 to 86 °C.

Regarding `CCCCS(=O)(=O)c1ccc2nn(-c3cc(C(C)(C)CC(C)(C)C)cc(C(C)(C)c4ccccc4)c3O)nc2c1`, the melting point was 118 °C.

As for `CN1C(=O)CC[C@]2(C)c3ccc(-c4cccc(F)c4F)cc3CC[C@@H]12`, the melting point is 147 to 148 °C.

In the case of `CCOC(=O)N1Cc2c(n(-c3ccc(F)cc3)c3ccc(F)cc23)C1`, the melting point fell in the range of 143 to 145 °C.

The compound `CCCn1cc(Cc2ccc(C(=O)O)cc2OC)c2cc(C=CCCC(=O)N(C)C)ccc21` showed a melting point of 151 to 153 °C.
